Assay results from US8691529B2, “Increasing protein production by increasing ABC50 expression or activity” (University Health Network, priority 2009, dated 2014).

Key:
E2R2 cells = assay: Apoptosis induction by Ec, AnnexinV/PI flow cytometry, E2R2 cells; assay type: cell-based, Human; conditions: 15 μM Ec for 2 hours, overnight recovery
Method: FIG. 2 ABC50 knockdown partially reverses resistance to Ec in E2R2 cells. A: Western blot of ABC50 expression in E2R2 cells infected with vector control or ABC50 shRNA. B: Apoptosis induction by Ec in E2R2 vector control and ABC50 knockdown cells. Cells were exposed to 15 μM Ec for 2 hours followed by overnight recovery as described in Materials and Methods. The following day, cells were stained with PI and AnnexinV and analysed by flow cytometry. AnnexinV positive, PI negative cells represent early apoptotic cells, AnnexinV positive, PI positive cells represent late apoptotic or necrotic cells.
(§1) To measure apoptosis induced by Econazole (Ec; Sigma-Aldrich, St. Louis, Mo.), cells were treated with Ec in RPMI containing 1% FBS for 2 hours at 37° C. then further incubated overnight in RPMI containing 10% FBS. Apoptosis induced by thapsigargin (Tg; Sigma-Aldrich) or Tunicamycin (Tu; Sigma-Aldrich) was determined after overnight incubation in RPMI containing 1% FBS. The cells were washed with PBS and stained with Annexin V-cy5 Apoptosis Detection kit (Biovision. Inc., Mountain View, Calif.)/PI and analysed by flow cytometry.

HL60 cells [1] = assay: Apoptosis induction by ER stress agents and etoposide, AnnexinV/PI flow cytometry, HL60 cells; assay type: cell-based, Human; conditions: 15 μM Ec 2 hours, 200 nM Tg, 1 μM Tu or 5 μM etoposide overnight; for sensitivity to apoptosis induction, ABC50 knockdown vs vector control: HL60 ABC50 knockdown cells; for sensitivity to apoptosis induction, ABC50 overexpressing vs control cells: HL60 ABC50 overexpressing cells
Method: FIG. 3 ABC50 knockdown alters growth rate and sensitivity to Ec in HL60 cells. A: Western blot of ABC50 expression in HL60 cells infected with vector control or ABC50 shRNA. B: Cell growth kinetics of control and ABC50 knocked-down cells. Values are means and standard errors determined from triplicate cultures and is representative measurement from a series of three independent experiments. ***indicates p<0.001 at 48 hours for ABC50 KD cells vs control. C: Apoptosis induction by serum withdrawal (SW), Ec, Tg, Tu and etoposide (Eto) in HL60 vector control and ABC50 knockdown cells. Cells were exposed to 15 μM Ec for 2 hours followed by overnight recovery as described in Materials and Methods. Cells were incubated overnight in the absence of serum, 200 nM Tg, 1 μM Tu or 5 μM etoposide. The following day, cells were stained with PI and AnnexinV and analysed by flow cytometry. AnnexinV positive, PI negative cells represent early apoptotic cells, AnnexinV positive, PI positive cells represent late apoptotic or necrotic cells. Plotted is early and late apoptotic cells combined. *p<0.05, **p<0.01 comparing knockdown or overexpressing cells to their vector control.
FIG. 4 Effect of ABC50 overexpression on growth rate and sensitivity to ER stress agents in HL60 cells. A: Western blot of ABC50 expression in HL60 cells infected with vector control or ABC50 OE vector. B: Cell growth kinetics of control and ABC50 overexpressing cells. Values are means and standard errors determined from triplicate cultures and is representative measurement from a series of three independent experiments. C: Apoptosis induction by serum withdrawal (SW), Ec, Tg, Tu and etoposide (Eto) in HL60 vector control and ABC50 overexpressing cells. Cells were exposed to 15 μM Ec for 2 hours followed by overnight recovery as described in Materials and Methods. Cells were incubated overnight in the absence of serum, 200 nM Tg, 1 μM Tu or 5 μM etoposide. The following day, cells were stained with PI and AnnexinV and analysed by flow cytometry. AnnexinV positive, PI negative cells represent early apoptotic cells, AnnexinV positive, PI positive cells represent late apoptotic or necrotic cells. Plotted is early and late apoptotic cells combined. *p<0.05, **p<0.01 comparing knockdown or overexpressing cells to their vector control.
as §1

[2] = system: ser51-phosphorylated eIF2α; assay: ER stress response, Western blot of ser51-phosphorylated eIF2α; assay type: cell-based, Human; conditions: Ec 15 μM, Tg 200 nM, 60 minutes; for induction of increased levels of phosphorylated eIF2α: ABC50 knockdown cells vs vector control; for levels of phosphorylated eIF2α: ABC50 overexpressing cells, Tu 200 ng/ml
Method: FIG. 6. ABC50 knockdown or overexpression alters the ER stress response. Vector controls, knockdown (A, B) or overexpressing cells (C, D) were exposed to Ec (15 μM), Tg (200 nM) or Tu (200 ng/ml) for 60 minutes. The cells were collected, lysed in RIPA buffer, resolved by SDS-PAGE and analysed with anti-sera specific for A, C: ser51-phosphorylated eIF2α or total eIF2α, B, D: BiP or actin. Numbers represent relative expression levels compared to control normalized to either total eIF2α or actin. The blots are representative of two independent experiments.
Cells were washed with PBS and lysed with Triple lysis buffer (50 mM Tris pH7.0, 150 mM NaCl, 0.1% SDS, 1% NP-40 and 0.5% DOC). Proteinase inhibitor (Boehringer) was added to 10 ml lysis buffer before use. Protein concentration was determined with the Pierce BCA kit. 20 μg of total protein was loaded onto 10% SDS-PAGE, transferred onto filters and blotted with rabbit anti-human ABC50 polyclonal serum (kind gift from Dr. C. Proud, Vancouver, Canada). eIF2α and its phosphorylated form (Ser51) were detected with rabbit polyclonal antibodies from Cell Signalling (Danvers, Mass.). Mouse anti-BiP/GRP78 antibodies were obtained from BD Biosciences (San Jose, Calif.) Anti-actin (pan Ab-5, Clone ACTN05) (Labvision/Neomarker, Fremont, Calif.) was used as a loading control.

HL60 cells [3] = assay: Global protein synthesis, 3H-leucine incorporation; assay type: cell-based, Human; conditions: 15 μM Ec for 15 minutes
Method: FIG. 8 Effect of ABC50 knockdown or overexpression on global protein synthesis. Cells were incubated with 15 μM Ec for 15 minutes, pulse-labelled with 3H-leucine and incorporation was measured as described in Materials and Methods. A: Vector control vs ABC50 knock-down. B: Vector control vs ABC50 overexpression. The values are averages and standard errors from 4 replicates. This experiment was repeated six times. *p<0.05, **p<0.01 comparing knockdown or overexpressing cells to their vector control.
Cells (2×10^5/sample) were collected, washed with PBS and then re-suspended in RPMI supplemented with fatty acid-free bovine serum albumin (BSA; 0.05%; Sigma). Cells were treated with Ec (0, 15 μM) for 15 min. After centrifugation (2,500 rpm; 5 min), cells were pulse-labeled with [^3H]-leucine (50 μCi/ml) for 10 min (37° C.; 5% CO2) in leucine-free RPMI. After two washes in RPMI, pellets were lysed with Triton X-100 (0.5% in PBS) followed by trichloroacetic acid (TCA, 10% w/v; 4° C.). Samples were washed in TCA (5% w/v), and the protein pellets were re-suspended in microscintillant (Packard, Conn., USA) and measured using a microplate scintillation counter (Packard).

sp2 cells = assay: Cell viability of Ec-selected sp2 cells, Trypan Blue staining; assay type: cell-based, mouse; conditions: exposure overnight
Method: FIG. 10. Generation of Ec-resistant sp2 cells. Sp2 cells were exposed to increasing concentrations of Econazole. Cells remaining after treatment were expanded and subjected to additional rounds of selection. A: cell viability for unselected (U) and selected (S) cells. Exposure to Econazole was for 2 hours in low serum medium, followed by a recovery period of 24 hours in full growth medium. Cells were exposed to Thapsigargin (Tg) and Tunicamycin (Tu) overnight. Cell viability was determined by Trypan Blue staining of 200 cells. B: Western blot of ABC50 expression in sp2 cells selected for resistance to Ec showing increased expression. C: Quantitation of expression normalized to actin. **p<0.01, ***p<0.001 comparing selected vs unselected.

`Clc1ccc(COC(Cn2ccnc2)c2ccc(Cl)cc2Cl)cc1` (centres unmarked) [Ec, 1-[2-[(4-chlorophenyl)methoxy]-2-(2,4-dichlorophenyl)ethyl]-1H-imidazole] was tested, and the “combined early and late apoptosis” value (E2R2 cells; E2R2 ABC50 knockdown cells) was 21.4%, the “combined early and late apoptosis” value (E2R2 cells; E2R2 vector control cells) was 7.6% and the “sensitivity to apoptosis induction, ABC50 knockdown vs vector control” value (from here on “sensitivity … vs vector control”) (HL60 cells [1]) was “significantly increased the sensitivity”. For the same compound, the “sensitivity to apoptosis induction, ABC50 overexpressing vs control cells” value (“sensitivity … vs control cells” for short) (HL60 cells [1]) was “decreased sensitivity”, the “induction of increased levels of phosphorylated eIF2α” value [2] was “particularly effective” and the “levels of phosphorylated eIF2α” value [2] was “reduced levels”. The “protein synthesis rates after exposure” value (HL60 cells [3]; ABC50 knock down cells) was “reduced protein synthesis rates even further”, the “protein synthesis level after exposure, compared to control cells” value (HL60 cells [3]; ABC50 overexpressing cells) was “significantly less reduced” and the “protein synthesis levels after exposure” value (HL60 cells [3]; vector control cells) was “significant decrease”.

With `C/C=C(/C)C(=O)O[C@H]1C(C)=C2[C@H]([C@@H]1OC(=O)CCCCCCC)[C@@](C)(OC(C)=O)C[C@H](OC(=O)CCC)[C@@]1(O)[C@H]2OC(=O)[C@@]1(C)O` [Tg, thapsigargin] the “resistance of Ec-resistant sp2 cells (cell viability, selected vs unselected)” value (sp2 cells) was “relatively resistant”, the “sensitivity … vs vector control” value (HL60 cells [1]) was “significantly increased the sensitivity” and the “sensitivity … vs control cells” value (HL60 cells [1]) was “decreased sensitivity”. For the same compound, the “induction of increased levels of phosphorylated eIF2α” value [2] was “particularly effective” and the “levels of phosphorylated eIF2α” value [2] was “reduced levels”.

For `COc1cc([C@@H]2c3cc4c(cc3[C@@H](O[C@@H]3O[C@@H]5CO[C@@H](C)O[C@H]5[C@H](O)[C@H]3O)[C@H]3COC(=O)[C@H]23)OCO4)cc(OC)c1O` [etoposide], the “sensitivity … vs vector control” value (HL60 cells [1]) was “did not affect sensitivity” and the “sensitivity … vs control cells” value (HL60 cells [1]) was “unchanged”.

With Tunicamycin the “resistance of Ec-resistant sp2 cells (cell viability, selected vs unselected)” value (sp2 cells) was “relatively resistant”, the “sensitivity … vs vector control” value (HL60 cells [1]) was “significantly increased the sensitivity” and the “sensitivity … vs control cells” value (HL60 cells [1]) was “decreased sensitivity”. For the same compound, the “levels of phosphorylated eIF2α” value [2] was “reduced levels”.
